The values below are quoted from earlier work in patent publication US6627219B2, “Oily capsule preparation and the method for preparing same” (Pharmaceutical Industry Technology and Development Center, priority 2000, dated 2003).

Test in series [1]: not given
The source holds these as a separate data set.

Read-outs that look alike come from different tables or passages of the source.

On to `COc1ccc2[nH]c([S+]([O-])Cc3ncc(C)c(OC)c3C)nc2c1` (stereo not drawn) [Omeprazole, 5-methoxy-2(((4-methoxy-3,5-dimethyl-2-pyridinyl)methyl)sulfinyl)1H-benzimidazole], for which the stability entry was “stable” (basic medium of a pH higher than 7) and “easily degraded or denatured” (neutral or acid medium). Moreover, the solubility in water entry in series [1] was “hardly soluble in water”.
